Activity calls are given as the source filed them. The rule behind the calls is not given here.

Consider 6 molecules from PubChem BioAssay AID1259407 (Chemical Carcinogenesis Research Information System (CCRIS), 2018).

This data set concerns CCRIS mutagenicity, Ames/micronucleus/aberration tests. Kind of data set: CCRIS mutagenicity studies.
Setting [1] is: Test System: AMES SALMONELLA TYPHIMURIUM, Strain/Indicator: TA98, Metabolic Activation: NONE, Method: STANDARD PLATE.
[2] abbreviates: Test System: AMES SALMONELLA TYPHIMURIUM, Strain/Indicator: TA98, Metabolic Activation: RAT, LIVER, S-9, AROCLOR 1254, Method: STANDARD PLATE.
Setting [3] is: Test System: AMES SALMONELLA TYPHIMURIUM, Strain/Indicator: TA100, Metabolic Activation: NONE, Method: STANDARD PLATE.
Where [4] appears, read: Test System: AMES SALMONELLA TYPHIMURIUM, Strain/Indicator: TA100, Metabolic Activation: RAT, LIVER, S-9, AROCLOR 1254, Method: STANDARD PLATE.
Where [5] appears, read: Test System: AMES SALMONELLA TYPHIMURIUM, Strain/Indicator: TA1535, Metabolic Activation: NONE, Method: STANDARD PLATE.
Setting [6] is: Test System: AMES SALMONELLA TYPHIMURIUM, Strain/Indicator: TA1535, Metabolic Activation: RAT, LIVER, S-9, AROCLOR 1254, Method: STANDARD PLATE.
Where [7] appears, read: Test System: AMES SALMONELLA TYPHIMURIUM, Strain/Indicator: TA1537, Metabolic Activation: NONE, Method: STANDARD PLATE.
The mark [8] stands for this setting: Test System: AMES SALMONELLA TYPHIMURIUM, Strain/Indicator: TA1537, Metabolic Activation: RAT, LIVER, S-9, AROCLOR 1254, Method: STANDARD PLATE.
Where [9] appears, read: Test System: AMES SALMONELLA TYPHIMURIUM, Strain/Indicator: TA1538, Metabolic Activation: NONE, Method: STANDARD PLATE.
[10] abbreviates: Test System: AMES SALMONELLA TYPHIMURIUM, Strain/Indicator: TA1538, Metabolic Activation: RAT, LIVER, S-9, AROCLOR 1254, Method: STANDARD PLATE.
[11] abbreviates: Test System: AMES SALMONELLA TYPHIMURIUM, Strain/Indicator: TA98, Metabolic Activation: HAMSTER, LIVER, S-9, AROCLOR 1254 (10%), Method: PREINCUBATION
[12] abbreviates: Test System: AMES SALMONELLA TYPHIMURIUM, Strain/Indicator: TA98, Metabolic Activation: NONE, Method: PREINCUBATION
The mark [13] stands for this setting: Test System: AMES SALMONELLA TYPHIMURIUM, Strain/Indicator: TA98, Metabolic Activation: RAT, LIVER, S-9, AROCLOR 1254 (10%), Method: PREINCUBATION
The mark [14] stands for this setting: Test System: AMES SALMONELLA TYPHIMURIUM, Strain/Indicator: TA100, Metabolic Activation: HAMSTER, LIVER, S-9, AROCLOR 1254 (10%), Method: PREINCUBATION
The mark [15] stands for this setting: Test System: AMES SALMONELLA TYPHIMURIUM, Strain/Indicator: TA100, Metabolic Activation: NONE, Method: PREINCUBATION
Setting [16] is: Test System: AMES SALMONELLA TYPHIMURIUM, Strain/Indicator: TA100, Metabolic Activation: RAT, LIVER, S-9, AROCLOR 1254 (10%), Method: PREINCUBATION
The mark [17] stands for this setting: Test System: AMES SALMONELLA TYPHIMURIUM, Strain/Indicator: TA1535, Metabolic Activation: HAMSTER, LIVER, S-9, AROCLOR 1254 (10%), Method: PREINCUBATION
The mark [18] stands for this setting: Test System: AMES SALMONELLA TYPHIMURIUM, Strain/Indicator: TA1535, Metabolic Activation: NONE, Method: PREINCUBATION
[19] abbreviates: Test System: AMES SALMONELLA TYPHIMURIUM, Strain/Indicator: TA1535, Metabolic Activation: RAT, LIVER, S-9, AROCLOR 1254 (10%), Method: PREINCUBATION
[20] abbreviates: Test System: AMES SALMONELLA TYPHIMURIUM, Strain/Indicator: TA1537, Metabolic Activation: HAMSTER, LIVER, S-9, AROCLOR 1254 (10%), Method: PREINCUBATION
Setting [21] is: Test System: AMES SALMONELLA TYPHIMURIUM, Strain/Indicator: TA1537, Metabolic Activation: NONE, Method: PREINCUBATION
Where [22] appears, read: Test System: AMES SALMONELLA TYPHIMURIUM, Strain/Indicator: TA1537, Metabolic Activation: RAT, LIVER, S-9, AROCLOR 1254 (10%), Method: PREINCUBATION

As for `NCC1CCC(C(=O)c2ccc(CCC(=O)O)cc2)CC1` (stereo not drawn), the mutagenic call under setting [1] is “inactive; negative”; the mutagenic call under setting [2] was “inactive; negative”; the mutagenic call under setting [3] was “inactive; negative”; the mutagenic call under setting [4] is “inactive; negative”; the mutagenic call under setting [5] is “inactive; negative”; the mutagenic call under setting [6] is “inactive; negative”. Further, the mutagenic call was “inactive; negative” under setting [7]; “inactive; negative” under setting [8]; “inactive; negative” under setting [9]; “inactive; negative” under setting [10]; “inactive; negative” (Test System: E. COLI, Strain/Indicator: WP2 UVRA, Metabolic Activation: NONE, Method: STANDARD PLATE); “inactive; negative” (Test System: E. COLI, Strain/Indicator: WP2 UVRA, Metabolic Activation: RAT, LIVER, S-9, AROCLOR 1254, Method: STANDARD PLATE).
For `CC(C)COC(=O)NO`, under “Test System: E. COLI, Strain/Indicator: WP2 UVRA, Metabolic Activation: NONE, Method: FLUCTUATION TEST”, the mutagenic call was “active; positive”.
`Cl/C=C(\Cl)COCCCl`: the mutagenic call was “inactive; negative” (Test System: AMES SALMONELLA TYPHIMURIUM, Strain/Indicator: TA100, Metabolic Activation: RAT, LIVER, S-9, 3-METHYLCHOLANTHRENE, Method: STANDARD PLATE); “active; positive” under setting [4]; “active; positive” (Test System: AMES SALMONELLA TYPHIMURIUM, Strain/Indicator: TA100, Metabolic Activation: RAT, LIVER, S-9, PHENOBARBITAL, Method: STANDARD PLATE); “inactive; negative” (Test System: AMES SALMONELLA TYPHIMURIUM, Strain/Indicator: TA100, Metabolic Activation: RAT, LIVER, S-9, Method: STANDARD PLATE).
Consider `CCOP(=O)(OCC)OCC`, for which the mutagenic call reads like this: under setting [11], “inactive; negative”; under setting [12], “inactive; negative”; under setting [13], “inactive; negative”; under setting [14], “inactive; negative”; under setting [15], “inactive; negative”; under setting [16], “inactive; negative”. The mutagenic call is, setting by setting: (Test System: AMES SALMONELLA TYPHIMURIUM, Strain/Indicator: TA102, Metabolic Activation: NONE, Method: STANDARD PLATE) “inactive; negative”; under setting [17], “inactive; negative”; under setting [18], “inactive; negative”; under setting [19], “inactive; negative”; under setting [20], “inactive; negative”; under setting [21], “inactive; negative”. For the same molecule, the mutagenic call is “inactive; negative” under setting [22]; “inactive; negative” (Test System: AMES SALMONELLA TYPHIMURIUM, Strain/Indicator: TA2638, Metabolic Activation: NONE, Method: STANDARD PLATE); “inactive; negative” (Test System: E. COLI, Strain/Indicator: WP2 (PKM101), Metabolic Activation: NONE, Method: STANDARD PLATE); “inactive; negative” (Test System: E. COLI, Strain/Indicator: WP2 UVRA (PKM101), Metabolic Activation: NONE, Method: STANDARD PLATE).
Take `C=CC1=C(C)C(=O)N/C1=C\c1[nH]c(Cc2[nH]c(/C=C3\NC(=O)C(C)=C3C=C)c(C)c2CCC(=O)NCCS(=O)(=O)O)c(CCC(=O)NCCS(=O)(=O)O)c1C`: the mutagenic call (Test System: Ames Salmonella typhimurium, Strain/Indicator: TA98, Metabolic Activation: Liver, S-9, Method: Preincubation) was “inactive; negative”; the mutagenic call (Test System: Ames Salmonella typhimurium, Strain/Indicator: TA98, Metabolic Activation: None, Method: Preincubation) was “inactive; negative”; the mutagenic call (Test System: Ames Salmonella typhimurium, Strain/Indicator: TA100, Metabolic Activation: Liver, S-9, Method: Preincubation) is “inactive; negative”; the mutagenic call (Test System: Ames Salmonella typhimurium, Strain/Indicator: TA100, Metabolic Activation: None, Method: Preincubation) is “inactive; negative”; the mutagenic call (Test System: Ames Salmonella typhimurium, Strain/Indicator: TA102, Metabolic Activation: Liver, S-9, Method: Preincubation) is “inactive; negative”; the mutagenic call (Test System: Ames Salmonella typhimurium, Strain/Indicator: TA102, Metabolic Activation: None, Method: Preincubation) is “inactive; negative”.
Turning to `O.[Al+3].[Al+3].[Na+].[Na+].[O-2].[O-2].[O-2].[O-2].[O-2].[O-2].[Si+4]`, the mutagenic call under setting [11] was “inactive; negative”; the mutagenic call under setting [12] was “inactive; negative”; the mutagenic call under setting [1] was “inactive; negative”; the mutagenic call under setting [13] is “inactive; negative”; the mutagenic call under setting [2] is “inactive; negative”; the mutagenic call under setting [14] was “inactive; negative”. Also, the mutagenic call is “inactive; negative” under setting [15]; “inactive; negative” under setting [3]; “inactive; negative” under setting [16]; “inactive; negative” under setting [4]; “inactive; negative” under setting [17]; “inactive; negative” under setting [18]. The mutagenic call by setting is: under setting [5], “inactive; negative”; under setting [19], “inactive; negative”; under setting [6], “inactive; negative”; under setting [20], “inactive; negative”; under setting [21], “inactive; negative”; under setting [7], “inactive; negative”. The mutagenic call is “inactive; negative” under setting [22]; “inactive; negative” under setting [8]; “inactive; negative” under setting [9]; “inactive; negative” under setting [10]; “inactive; negative” (Test System: E. COLI, Strain/Indicator: WP2, Metabolic Activation: NONE, Method: STANDARD PLATE); “inactive; negative” (Test System: E. COLI, Strain/Indicator: WP2, Metabolic Activation: RAT, LIVER, S-9, AROCLOR 1254, Method: STANDARD PLATE).
